Key:
[1] = molecular target: T1, 17-beta-hydroxysteroid dehydrogenase type 1 (Homo sapiens, UniProt P14061); test: Compound was tested for the inhibition of 17-beta-hydroxysteroid dehydrogenase type 1(17-beta-HSD type 1)
T1 sequence (P14061 whole entry): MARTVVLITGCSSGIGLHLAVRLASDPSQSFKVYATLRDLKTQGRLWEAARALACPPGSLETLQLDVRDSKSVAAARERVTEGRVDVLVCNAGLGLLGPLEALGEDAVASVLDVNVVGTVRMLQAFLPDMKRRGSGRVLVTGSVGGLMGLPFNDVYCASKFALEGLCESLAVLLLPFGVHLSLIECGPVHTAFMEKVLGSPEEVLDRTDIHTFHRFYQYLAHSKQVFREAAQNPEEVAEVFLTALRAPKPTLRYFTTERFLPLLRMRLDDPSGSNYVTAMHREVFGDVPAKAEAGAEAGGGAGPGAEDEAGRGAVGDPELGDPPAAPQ

[2] = molecular target: T2, 17-beta-hydroxysteroid dehydrogenase type 1 (Homo sapiens) (UniProt P14061); test: Compound was tested for the inhibition of 17-beta-hydroxysteroid dehydrogenase type 1(17-beta-HSD type 1) at 1 uM concentration
T2 sequence (whole entry): T1 sequence (P14061 whole entry)

[3] = molecular target: T2, 17-beta-hydroxysteroid dehydrogenase type 1 (Homo sapiens); test: Compound was tested for the inhibition of 17-beta-hydroxysteroid dehydrogenase type 1(17-beta-HSD type 1) at 10 uM concentration

| Structure (SMILES) | IC50 [1] [µM] | inhibition [2] [%] | inhibition [3] [%] |
| --- | --- | --- | --- |
| C=CC[C@@H]1C[C@H]2[C@@H]3CCc4cc(O)ccc4[C@H]3CC[C@]2(C)[C@H]1O |  | 26 | 63 |
| C[C@]12CC[C@@H]3c4ccc(O)cc4CC[C@H]3[C@@H]1C[C@@H](CCCBr)[C@@H]2O | 0.46 | 70 | 94 |
| CCC[C@@H]1C[C@H]2[C@@H]3CCc4cc(O)ccc4[C@H]3CC[C@]2(C)[C@H]1O |  | 29 | 69 |
| C[C@]12CC[C@@H]3c4ccc(O)cc4CC[C@H]3[C@@H]1C[C@@H](CCCSC#N)[C@@H]2O | 1.15 | 82 | 95 |

Other lines, results leading:

| IC50 [1] [µM] | inhibition [2] [%] | inhibition [3] [%] | Structure (SMILES) |
| --- | --- | --- | --- |
| 4.3 | 49 | 81 | C[C@]12CC[C@@H]3c4ccc(O)cc4CC[C@H]3[C@@H]1C[C@@H](CCCF)[C@@H]2O |
| 1 | 88 | 92 | C[C@]12CC[C@@H]3c4ccc(O)cc4CC[C@H]3[C@@H]1C[C@@H](CCCCl)[C@@H]2O |
|  | 17 | 57 | C[C@]12CC[C@@H]3c4ccc(O)cc4CC[C@H]3[C@@H]1C[C@@H](CCCO)[C@@H]2O |
| 0.42 | 68 | 92 | C[C@]12CC[C@@H]3c4ccc(O)cc4CC[C@H]3[C@@H]1C[C@@H](CCCI)[C@@H]2O |
